Measured values published in paper PMC8296708, “The pan HDAC inhibitor Givinostat improves muscle function and histological parameters in two Duchenne muscular dystrophy murine models expressing different haplotypes of the LTBP4 gene” (Skeletal Muscle, 2021).

Key:
mdx mice [1] = experiment: Treadmill run to exhaustion test in mdx mice; type: in vivo, mouse (C57BL/10ScSn-Dmd^mdx/J); details: for Distance run: 37.5 mg/kg p.o.
Source text: (§1) For the efficacy studies, C57BL/10 J (Stock No: 000665) wild type (wt) and C57BL/10ScSn-Dmd^mdx/J (Stock No: 001801) 7–8-week-old male mice, DBA/2J wt (Stock No: 000671), and D2.B10-Dmd^mdx/J (Stock No: 013141) 6–7-week-old male mice were purchased from The Jackson Laboratories (Bar Harbor, Maine, USA). After 5 days of acclimatization in the animal facility, mice were randomized into different treatment groups based on their BW. C57BL/10J wt mice were assigned to the naive wt group (healthy mice that received no treatment, but were subjected to functional tests), whereas mdx mice were assigned to the following groups (9 mice/group; 4–5 mice/cage): naive mdx (mice that received no treatment, but were subjected to functional tests), vehicle (0.5% methylcellulose, p.o.), and Givinostat (0.1, 0.3, 1, 5, 10, 25, and 37.5 mg/kg, p.o.). DBA/2J mice were assigned to the naive wt group (healthy mice that received no treatment, but were subjected to functional tests), whereas D2.B10 mice were assigned to the following groups (12–13 mice/group; 4–5 mice/gage): vehicle (filtered tap water, p.o.), Givinostat (1, 5, 10, and 37.5 mg/kg, p.o.), prednisone 1 mg/kg, and Deflazacort 1 mg/kg (i.p.).
In the efficacy studies, Givinostat powder (ITF2357) was suspended in 0.5% methylcellulose (Sigma-Aldrich) and administered p.o. (by gavage) at the doses of 0.1, 0.3, 1, 5, 10, 25, and 37.5 mg/kg qdx5x15weeks (administration volume per mouse: 10 mL/kg) in mdx mice (see Additional Figure 1A). Vehicle-treated mdx mice received 0.5% methylcellulose suspension. Givinostat suspension was stored at + 4 °C, and it was freshly prepared every 7 days. Probably due to the impairment of their tongue and masticatory muscles, the oral gavage procedure turned out to be difficult to perform, and chronic treatment of D2.B10 mice by this route was considered to bear a high risk of damaging the esophagus. For this reason, Givinostat was administered in the drinking water. Givinostat was dissolved in filtered tap water and was administered in drinking water (throughout 24 h) for 105 days at the dose of 1, 5, 10, and 37.5 mg/kg/day, according to a daily estimate of water consumption of 4 ml/mouse/day. Water consumption was weekly monitored throughout the entire duration of the study weighing the bottle of each cage (maximum 4 mice per cage). Prednisone and Deflazacort powder (Sigma-Aldrich) was dissolved in 2% DMSO (Sigma-Aldrich) and diluted in sterile saline on injection days. Both drugs were administered weekly (for 15 weeks) by i.p. injection at the dose of 1 mg/kg in a volume of 10 mL/kg. Givinostat and steroid treatments started on days 7 and 9 of the experimental plan, respectively (see Additional Figure 1B). All mice were monitored daily and tolerability was evaluated on the basis of BW and clinical signs.
Run to exhaustion performance of mdx and D2.B10 mice was evaluated every 14 or 21 days, respectively, using a treadmill apparatus (Ugo Basile SRL, Italy). The exhaustion protocol consisted in an initially horizontal running at 5 m/min for 5 min after which the speed was increased 1 m/min every minute until exhaustion (the procedure was compliant with the standard operating procedures of TREAT–NMD Neuromuscular Network). The test was concluded when mice remained for more than 10 s on the shocker plate (for both C57BL/10 J and mdx mice) or when D2.B10 mice reached a maximum number of shocks. Due to the excessive stress caused to D2.B10 mice by this functional test, a maximum number of 600 and 150 shocks was set. These experimental conditions were also applied to the DBA/2J wt healthy mice.
After taking baseline readings for behavioral assays (FNmax and distance run by the animals), mice were re-randomized based on these two parameters, also considering the previous randomization performed on their BW.
The grip strength and run to exhaustion tests were performed during the light-cycle phase, in the early hours of the morning (8:00–11:30 am). […]

mdx mice [2] = experiment: Histopathological evaluation of severity of myodystrophy in mdx mice; type: in vivo, mouse (C57BL/10ScSn-Dmd^mdx/J); details: T16
Description: (§2) In these experiments, the histopathological evaluation of muscle inflammatory infiltrate, adipose tissue deposition, regeneration, and degeneration of the muscular tissue was also performed. The severity of myodystrophy in the different muscles (TA, GAS and DIA) was quantified through a weighted histopathological method that considered some parameters scored by severity and extension of the injury: muscle degeneration/necrosis, regeneration, inflammatory infiltrate, interstitial reaction, and adipose tissue deposition. Each parameter was classified by severity (mild = 1, moderate = 2, and severe = 3) and extension (focal = 1, multifocal = 2, and diffuse = 3). The individual severity score was calculated for each animal and an average score per group was calculated.

[3] = test system: in vivo pulmonary fibrosis model; set-up: method as in McKinsey TA, unpublished results; details: administered with the diet; ref McKinsey TA, unpublished results; cited from earlier work
mdx mice [4] = experiment: Grip strength test (maximal normalized strength, FNmax) in mdx mice; type: in vivo, mouse (C57BL/10ScSn-Dmd^mdx/J)
Source text: as §1
In the efficacy studies, Givinostat powder (ITF2357) was suspended in 0.5% methylcellulose (Sigma-Aldrich) and administered p.o. (by gavage) at the doses of 0.1, 0.3, 1, 5, 10, 25, and 37.5 mg/kg qdx5x15weeks (administration volume per mouse: 10 mL/kg) in mdx mice (see Additional Figure 1A). Vehicle-treated mdx mice received 0.5% methylcellulose suspension. Givinostat suspension was stored at + 4 °C, and it was freshly prepared every 7 days. […] Water consumption was weekly monitored throughout the entire duration of the study weighing the bottle of each cage (maximum 4 mice per cage). […] All mice were monitored daily and tolerability was evaluated on the basis of BW and clinical signs.
In both efficacy studies, the effectiveness of treatments was evaluated every week by measuring the forelimb strength by a grip strength meter (Ugo Basile SRL, Italy). BW of mdx (see Additional Figure 2) and D2.B10 mice (see Additional Figure 3) was also measured in order to normalize the absolute grip strength of each mouse with respect to its BW. […] The highest recorded value of maximal normalized strength (FNmax) obtained for each mouse at all the time points (from T0 to T15) was used for further analysis.
After taking baseline readings for behavioral assays (FNmax and distance run by the animals), mice were re-randomized based on these two parameters, also considering the previous randomization performed on their BW. […]

[5] = test system: murine models of diastolic dysfunction; set-up: method as in PMID 29437146; details: drug admixed to the diet; cited from earlier work
D2.B10 mice = experiment: Histopathological evaluation of severity of myodystrophy in D2.B10 mice; type: in vivo, mouse (D2.B10-Dmd^mdx/J); details: T8 and T16
Description: as §2

CCN(CC)Cc1ccc2cc(COC(=O)Nc3ccc(C(=O)NO)cc3)ccc2c1 [Givinostat]
Distance run (mdx mice [1]; day 31): 785 ± 97 m
Distance run (mdx mice [1]; day 44): 693 ± 103 m
Distance run (mdx mice [1]; day 94): 410 ± 40 m
Lowest effective dose on time to exhaustion (mdx mice [1]; day 94): 0.3 mg/kg
Time to exhaustion (mdx mice [1]; highest dose (37.5 mg/kg), day 94, vs vehicle): significantly prolonged the time to exhaustion
Distance run, significance of doses lower than 37.5 mg/kg (mdx mice [1]; lower doses, trend of dose-response): did not reach significance
Histological evaluation of inflammatory infiltrate, adipose tissue deposition, regeneration, degeneration (mdx mice [2]): not significantly different among the treatment groups
Activity in in vivo pulmonary fibrosis model [3]: inactive
FNmax level on treatment day 49 (mdx mice [4]; 37.5 mg/kg p.o., transient): comparable to that of wt healthy mice
Effect on maximal normalized strength (FNmax) (mdx mice [4]; 0.1-37.5 mg/kg p.o. qdx5x15weeks): remarkable, dose-dependent increase of the FNmax
Dose of maximal efficacy on FNmax (mdx mice [4]; p.o. qdx5x15weeks): 37.5 mg/kg
Persistence of beneficial effect on FNmax (mdx mice [4]; vs vehicle): remained significant up to day 105
Efficacy in two murine models of diastolic dysfunction with preserved ejection fraction [5]: highly efficacious
Histological evaluation of inflammatory infiltrate, adipose tissue deposition, regeneration, degeneration (D2.B10 mice): not significantly different among the treatment groups
